Columns and labels:
[1] = system: HT29-NIS cells; assay: 125I iodide uptake in HT29-NIS cells; format: cell-based, human; details: one hour incubation with 125I, Iomeron 100 μL corresponding to 70 mg of iomeprol
Method: (§1) FIG. 2: Effect of Iomeron on iodide uptake of established cell lines expressing NIS. HT29-NIS (A) or PCCL3 (B) cells were incubated for one hour with ^125I in the presence of an equal volume of either saline, Iomeron (100 μL corresponding to 70 mg of iomeprol), NaI or perchlorate. Cells were then rapidly washed with saline buffer and lysed. Aliquots of lysates were counted in a y counter. The results are expressed as percentage of uptake in the control condition. The data presented are the mean±SEM of triplicates and are representative of three independent experiments. n.s: non statistically significant.
(§2) The human colorectal cancer cell line HT-29 (HTB-38, ATCC) was transfected with pcDNA3.1-mNIS (murine NIS) (Perron et al., 2001) using the FuGENE 6 reagent (Roche) according to the manufacturer's instructions. Stable clones were selected by addition of 1 mg/mL geneticin (G418) to the medium 3 days after transfection. One clone with high functional expression of NIS was selected (Richard-Fiardo et al., 2012). The rat follicular thyroid cell line PCCL3 was obtained from Dr. A. De La Vieja (Madrid, Spain) and cultured as previously described (Leoni et al., 2011). Measurement of in vitro iodide uptake was performed as previously described (Groot-Wassink et al., 2002).
(§3) We next examined whether iomeprol and its contaminating free iodide could affect iodide uptake in NIS-expressing cell lines. HT29-NIS (a human colorectal carcinoma cell line expressing NIS) (FIG. 2A) or PCCL3 (a rat follicular thyroid cell line) (FIG. 2B) cells were incubated with ^125I in the presence of either saline buffer, Iomeron, NaI, or perchlorate (NaClO4). After one hour, cells were washed and cellular ^125I content was determined.

[2] = system: PCCL3 cells; assay: 125I iodide uptake in PCCL3 cells; format: cell-based, rat; details: one hour incubation with 125I, Iomeron 100 μL corresponding to 70 mg of iomeprol
Method: as §1, §2, §3

[3] = system: mouse thyroid; assay: 99m-pertechnetate uptake by the mouse thyroid (microSPECT/CT); format: in vivo
Method: (§4) FIG. 3: Effect of Iomeron on the uptake of ^99m-pertechnetate by the mouse thyroid and salivary glands. SPECT/CT imaging of mice administered 20 MBq ^99m-pertechnetate was performed (day 0). At the end of the scan, Iomeron was administered intravenously. One, four, eight, twelve and eighteen days later, animals were injected with 20 MBq ^99m-pertechnetate and new scans were performed. The data presented represent the percentage of radiotracer injected taken up by the thyroid (A) and salivary glands (B). (n=3 per condition). ***p<0.001; n.s: non statistically significant.
FIG. 5: Effect of KI on the uptake of ^99m-pertechnetate by the mouse thyroid and salivary glands. SPECT/CT imaging of mice administered 20 MBq ^99m-pertechnetate was performed (day 0). Animals were injected intraperitoneally with KI (9 mg in 180 μL) and scanned 30 minutes later. Twenty-four hours later, animals were injected with 20 MBq ^99m-pertechnetate and new scans were performed. The data presented represent the percentage of radiotracer injected taken up by the thyroid (A) and salivary glands (B). (n=3 per condition). *p<0.05; ***p<0.001.
FIG. 7: Evaluation of the effect of different modes of administration of Iomeron on the uptake of ^99m-pertechnetate by the thyroid. SPECT/CT imaging of mice administered 20 MBq ^99m-pertechnetate was performed (day 0). At the end of the scan, intravenous, sublingual, enteral, and intraperitoneal administrations of Iomeron were performed. Four days later, animals were injected with 20 MBq ^99m-pertechnetate and new scans were performed. The data presented represent the percentage of radiotracer injected taken up by the thyroid (A) and salivary glands (B). (n=2 per condition). ***p<0.001.
FIG. 9: Effect of Telebrix, Optiray and Omnipaque on the uptake of ^99mpertechnetate by the mouse thyroid. SPECT/CT imaging of mice administered 20 MBq ^99mpertechnetate was performed (day 0). At the end of the scan, mice received a sublingual administration […] of Telebrix or Optiray, or Omnipaque. Two days later, animals were injected with 20 MBq ^99mpertechnetate and new scans were performed. The data presented represent the percentage of radiotracer injected taken up by the thyroid. (n=3 per condition). ***p<0.001; n.s: non statistically significant. % IA: percentage of the injected activity.
Eight-week-old female C57B/6J mice were obtained from Janvier (Le Genest Saint Isle, France). Animal housing and procedures were conducted according to French Agriculture Ministry guidelines and were approved by the local ethics committee (Ciepal NCE/2014-211).
Intravenous and intraperitoneal administration was performed by injecting 100 μL Iomeron diluted 50/50 (vol/vol) with phosphate-buffered saline (corresponding to 18 mg iomeprol). Enteral administration was performed by gavage of 100 μL Iomeron diluted 50/50 (vol/vol) with phosphate-buffered saline (corresponding to 18 mg iomeprol). Sublingual administration was performed on anesthetized mice by five sublingual depositions of 5 μL Iomeron, with a delay of 10 minutes between two administrations. This procedure led to the administration of […] iomeprol.
^99mTc pertechnetate (^99mTcO4^−) was obtained from a freshly eluted ^99Mo/^99mTc generator. Animals were administered intraperitoneally with activities of 20 MBq ^99mTcO4^−. Thyroid and salivary gland tracer uptake was measured at different times using a dedicated microSPECT/CT scanner (eXplore speCZT CT120, GE) under gas anesthesia (air and 1-2% isoflurane) in an air-warmed imaging chamber (Minerve, Esternay, France) to maintain body temperature at 37° C. The SPECT scanner uses a stationary full ring of CZT detectors and a rotating 7-pinhole (1 mm opening) collimator. A total of 350 projections were acquired over 360° in 8 minutes. Images were reconstructed using the manufacturer's 3D-OSEM algorithm (5 subsets and 11 iterations), which incorporates the system's collimator-detector response function and scatter correction. […]

[4] = system: mouse salivary glands; assay: 99m-pertechnetate uptake by the mouse salivary glands (microSPECT/CT); format: in vivo
Method: as §4
FIG. 5: Effect of KI on the uptake of ^99m-pertechnetate by the mouse thyroid and salivary glands. […]
^99mTc pertechnetate (^99mTcO4^−) was obtained from a freshly eluted ^99Mo/^99mTc generator. […] Thyroid and salivary gland tracer uptake was measured at different times using a dedicated microSPECT/CT scanner (eXplore speCZT CT120, GE) under gas anesthesia (air and 1-2% isoflurane) in an air-warmed imaging chamber (Minerve, Esternay, France) to maintain body temperature at 37° C. […] Reconstructed images were analyzed and quantified using AMIDE software (Loening and Gambhir, 2003). Tracer activities in the various relevant organs were calculated. […] Uptakes were expressed as percentages of the injected dose (% ID) after decay correction (Cambien et al., 2014).

[5] = system: human thyroid; assay: 99mTcO4- scintigraphy of the human thyroid; format: in vivo; details: patient, intravenous injection two weeks before scintigraphy
Method: (§5) FIG. 4: Effect of Iomeron on the uptake of ^99m-pertechnetate by the human thyroid and salivary glands. Scintigraphies of a naïve patient (A) or a patient who has been administered with Iomeron two weeks before the scintigraphy. SG: salivary glands; T: thyroid; R: right; L: left.
(§6) A “naïve” patient and a patient who had received an intravenous injection of Iomeron 350 two weeks before scintigraphy were involved. On the day of the scintigraphy, patients were injected intravenously with an activity of 1 MBq/kg and 600 s scans was performed 15 min later.

[6] = system: human salivary glands; assay: 99mTcO4- scintigraphy of the human salivary glands; format: in vivo; details: patient, intravenous injection two weeks before scintigraphy
Method: as §5, §6

[7] = system: NIS; assay: NIS expression in mouse thyroid glands (immunohistochemistry, Western blot); format: in vivo; details: four days after intravenous injection
Method: (§7) FIG. 6: Analysis of NIS expression in the thyroid and salivary glands in response to Iomeron. Saline buffer (A, C) or Iomeron (B, D) were administered intravenously. Four days later, animals were culled and NIS expression in the thyroid glands (A, B) and salivary glands (C, D) were analyzed by immunohistochemistry (n=3 per group). Thyroids and salivary glands were also processed for Western blot analysis of NIS and β-actin expression (n=2 per group).
(§8) Thyroid membrane proteins were subjected to SDS-PAGE electrophoresis as previously described (Cambien et al., 2014). Western blotting was performed with antibody 25 anti-mouse NIS, an affinity-purified rabbit immunoreactive serum fraction, or with an anti-β-actin antibody (Sigma).
(§9) After culling the animals, thyroids and salivary glands were dissected, paraffin embedded, and cut into 4-μm-thick sections. The paraffin was then removed and the sections were rehydrated and subjected to an antigen retrieval treatment with a solution of citrate buffer, pH 6, using an automate (PT Link, Dako). Immunostaining was performed following a standard protocol (Dako EnVision™ FLEX using an automated immunostainer, Autostainer, Dako). Endogenous peroxide was blocked using the EnVision™ FLEX Peroxidase-Blocking Reagent. […]

[8] = system: NIS; assay: NIS expression in mouse salivary glands (immunohistochemistry, Western blot); format: in vivo; details: four days after intravenous injection
Method: as §7, §8, §9

[9] = system: thyroid; details: KI tablets, prevention of 131-I entry into the thyroid; cited from earlier work
[10] = after intravenous administration, scans on days 1, 4, 8, 12, 18

CN(C(=O)CO)c1c(I)c(C(=O)NCC(O)CO)c(I)c(C(=O)NCC(O)CO)c1I (stereo not drawn) [Iomeron, iomeprol]
iodide uptake (125I) [1]: failed to affect this uptake significantly
iodide uptake (125I) [2]: failed to affect this uptake significantly
radiotracer uptake by the thyroid ([3]; 24 hours after intravenous administration): dramatic reduction
duration of low thyroid uptake capacity [3, 10]: remained low for eight days
recovery of thyroid uptake capacity [3, 10]: recovery was observed from day 12
radiotracer uptake by the thyroid ([3]; enteral administration (gavage, 18 mg iomeprol), four days later): neither enteral nor intraperitoneal administration affected radiotracer uptake
radiotracer uptake by the thyroid ([3]; intraperitoneal administration (18 mg iomeprol), four days later): neither enteral nor intraperitoneal administration affected radiotracer uptake
radiotracer uptake by the thyroid ([3]; intravenous administration (18 mg iomeprol), four days later): marked reduction
radiotracer uptake by the thyroid ([3]; sublingual administration (9 mg iomeprol), four days later): marked reduction
uptake by the salivary glands ([4]; after intravenous administration, same animals): failed to affect iodide uptake
uptake to the salivary glands ([4]; intravenous, sublingual, enteral or intraperitoneal administration, four days later): not affected in any condition
pertechnetate uptake in the thyroid [5]: lack of fixation in the thyroid region
pertechnetate uptake in the salivary glands [6]: radiotracer uptake in the salivary glands
NIS expression in thyroids, immunohistological analysis [7]: hardly detectable
NIS expression in the thyroid glands, western blot ([7]; compared with controls): dramatic decrease
NIS expression in ductal cells of the salivary glands, immunohistological analysis [8]: detectable
NIS expression in the salivary glands, western blot ([8]; compared with controls): no significant difference

[I-].[K+] [KI, potassium iodide]
ability of the thyroid to take up pertechnetate ([3]; 30 minutes after intraperitoneal injection (9 mg in 180 μL)): reduced
ability of the thyroid to take up pertechnetate ([3]; 24 hours after intraperitoneal injection (9 mg in 180 μL)): recovered
duration of the protective effect [9]: 24 h

[I-].[Na+] [NaI]
iodide uptake (125I) [1]: inhibited iodide uptake
iodide uptake (125I) [2]: inhibited iodide uptake

[O-][Cl+3]([O-])([O-])O [perchlorate]
iodide uptake (125I) [1]: inhibited iodide uptake
iodide uptake (125I) [2]: inhibited iodide uptake

Reference: patent US20200261497A1, “Iodinated Contract Medium for Use as a Medicament for Thyroid Radioprotection” (priority 2017, published 2020)
